We go through five molecules from PMC6149664, “Synthesis and In Vitro Antimycobacterial Activity of Novel N-Arylpiperazines Containing an Ethane-1,2-diyl Connecting Chain” (Molecules : A Journal of Synthetic Chemistry and Natural …, 2017).

The structures appear in SMILES notation. Values after ≈ are worked out from the molar mass of the structure shown. Where two headings read alike, the source gives them in different places.

The subject of assay [1] is M. kansasii CIT11/06. The assay can be described thus: In vitro antimycobacterial MIC (IC90), alamarBlue 96-well assay in Middlebrook broth. It counts as cell-based, Mycobacterium kansasii. Particulars: 7 days incubation, read-out: MIC, MK CIT11/06.
The subject of assay [2] is M. kansasii CNCTC My 235/80 (identical with ATCC 12478). The assay can be described thus: In vitro antimycobacterial MIC, dilution-micromethod in Šula semisynthetic medium. The class given is cell-based, Mycobacterium kansasii.
Assay [3] relates to M. avium CNCTC My 330/80 (identical with ATCC 25291). The assay is described as above. Particulars: Mycobacterium avium. It counts as cell-based.
The subject of assay [4] is M. tuberculosis CNCTC My 331/88 (identical with H37Rv and ATCC 2794). The assay is described as above. It counts as cell-based. The note with it: Mycobacterium tuberculosis.
Assay [5] has as its system M. kansasii 6 509/96 clinical isolate. The assay is described as above. The class given is cell-based. Particulars: Mycobacterium kansasii, read-out: MIC, MK 6 509/96.
The subject of assay [6] is M. avium subsp. paratuberculosis CIT03. The assay can be described thus: microbe, parasite or virus in culture. The class given is cell-based. Particulars: Mycobacterium avium, 168 h, read-out: MIC, MAP CIT03.
In assay [7] the test system is M. avium hominissuis CIT10/08. The assay can be described thus: In vitro antimycobacterial MIC (IC90), alamarBlue 96-well assay in Middlebrook broth. The class given is cell-based, Mycobacterium avium hominissuis. The note with it: Mycobacterium avium, 168 h, 7 days incubation, read-out: MIC, MAH CIT10/08.
In assay [8] the test system is M. avium intracellulare ATCC 13950. The description is as above. Particulars: Mycobacterium avium, ATCC13950, 168 h, 7 days incubation, read-out: MIC, MAI ATCC 13950. The class given is cell-based, Mycobacterium avium intracellulare.
Setting [9] is: Mycobacterium kansasii, CIT11/06, 168 h.
[10] abbreviates: Mycobacterium kansasii, ATCC12478, 168 h, 7 d cultivation, read-out: MIC, MK My 235/80.
Setting [11] is: Mycobacterium kansasii, ATCC12478, 336 h, 14 d cultivation, read-out: MIC, MK My 235/80.
Where [12] appears, read: Mycobacterium kansasii, ATCC12478, 336 h, both M. kansasii strains, depending on strain and number of days of incubation (standards: 14-d/21-d), read-out: MIC against M. kansasii My 235/80 and M. kansasii 6 509/96.
Where [13] appears, read: Mycobacterium kansasii, ATCC12478, 504 h, 21 d cultivation, read-out: MIC, MK My 235/80.
The mark [14] stands for this setting: both M. kansasii strains, depending on strain and number of days of incubation (standards: 14-d/21-d), read-out: MIC against M. kansasii My 235/80 and M. kansasii 6 509/96.
Setting [15] is: ATCC25291, 336 h, 14 d cultivation, read-out: MIC, MA My 330/88.
Where [16] appears, read: ATCC25291, 504 h, 21 d cultivation, read-out: MIC, MA My 330/88.
[17] abbreviates: 336 h, 14 d cultivation, read-out: MIC, MT My 331/88.
[18] abbreviates: 504 h, 21 d cultivation, read-out: MIC, MT My 331/88.

As to `O=C(O)c1cn(C2CC2)c2cc(N3CCNCC3)c(F)cc2c1=O` [CPX, ciprofloxacin, reference compound], the MIC in assay [1] and in assay [1] (setting [9]) was more than 91 µM each time.
For `CC[C@@H](CO)NCCN[C@@H](CC)CO` [EMB, ethambutol, reference compound], the MIC amounted to 1 µM (≈ 0.204 µg/mL) in assay [2] (setting [10]); 2 µM (≈ 0.409 µg/mL) in assay [2] (setting [11]); 1 µM (≈ 0.204 µg/mL) in assay [2] (setting [12]); 2 µM (≈ 0.409 µg/mL) in assay [2] (setting [13]); 2 µM (≈ 0.409 µg/mL) in assay [2] (setting [14]); 16 µM (≈ 3.27 µg/mL) in assay [3] (ATCC25291, 336 h, 14-d/21-d, read-out: MIC against M. avium CNCTC My 330/80). For the same molecule, the MIC in assay [3] (setting [15]) worked out at 16 µM (≈ 3.27 µg/mL); in assay [3] (setting [16]) it was 16 µM (≈ 3.27 µg/mL); in assay [4] (setting [17]), 1 µM (≈ 0.204 µg/mL); in assay [4] (setting [18]), 2 µM (≈ 0.409 µg/mL); in assay [5] (168 h, 7 d cultivation) it was 1 µM (≈ 0.204 µg/mL); in assay [5] (336 h, 14 d cultivation), 2 µM (≈ 0.409 µg/mL). In addition, the MIC in assay [5] (504 h, 21 d cultivation) is 2 µM (≈ 0.409 µg/mL).
As to `NNC(=O)c1ccncc1` [INH, isonicotinic acid hydrazide, reference compound], the MIC in assay [6] was more than 1820 µM; in assay [2] (setting [10]) it was more than 250 µM; in assay [2] (setting [11]), more than 250 µM; in assay [2] (setting [13]), more than 250 µM; in assay [1] (setting [9]) it was more than 1820 µM; in assay [3] (setting [15]) it was more than 250 µM. Further, the MIC was more than 250 µM in assay [3] (setting [16]); 0.5 µM (≈ 0.0686 µg/mL) in assay [4] (336 h, 14-d/21-d cultivation, read-out: MIC against M. tuberculosis CNCTC My 331/88); 0.5 µM (≈ 0.0686 µg/mL) in assay [4] (setting [17]); 0.5 µM (≈ 0.0686 µg/mL) in assay [4] (setting [18]); 4 µM (≈ 0.549 µg/mL) in assay [5] (168 h, 7 d cultivation); 8 µM (≈ 1.1 µg/mL) in assay [5] (336 h, 14 d cultivation). Moreover, the MIC is 8 µM (≈ 1.1 µg/mL) in assay [5] (504 h, 21 d cultivation); more than 1820 µM in assay [7]; more than 1820 µM in assay [8].
On to `CC1COc2c(N3CCN(C)CC3)c(F)cc3c(=O)c(C(=O)O)cn1c23` (stereo not shown) [OFLX, ofloxacin, reference compound], for which the MIC was determined as 0.5 µM (≈ 0.181 µg/mL) in assay [2] (setting [10]); 1 µM (≈ 0.361 µg/mL) in assay [2] (setting [11]); 0.5 µM (≈ 0.181 µg/mL) in assay [2] (setting [12]); 1 µM (≈ 0.361 µg/mL) in assay [2] (setting [13]); 1 µM (≈ 0.361 µg/mL) in assay [2] (setting [14]); 32 µM (≈ 11.6 µg/mL) in assay [3] (setting [15]). In addition, the MIC amounted to 62.5 µM (≈ 22.6 µg/mL) in assay [3] (setting [16]); 1 µM (≈ 0.361 µg/mL) in assay [4] (setting [17]); 2 µM (≈ 0.723 µg/mL) in assay [4] (setting [18]); 0.5 µM (≈ 0.181 µg/mL) in assay [5] (168 h, 7 d cultivation); 0.5 µM (≈ 0.181 µg/mL) in assay [5] (336 h, 14 d cultivation); 1 µM (≈ 0.361 µg/mL) in assay [5] (504 h, 21 d cultivation).
Turning to `NC(=O)c1cnccn1` [PZA, pyrazinamide, reference compound], the MIC was more than 2030 µM in assay [6], more than 2030 µM in assay [1] (setting [9]), 487 µM (≈ 60 µg/mL) in assay [7] and more than 2030 µM in assay [8].
